Laboratory results as given in patent EP2229935A1, “Peptide derivatives or pharmaceutically acceptable salts thereof, method for producing the same, use of said derivatives and pharmaceutical composition” (Nebolsin, Vladimir Evgenievich, priority 1997, dated 1999).
Structures can show the parent of a compound that is named as a salt. Where two headings read alike, the source gives them in different places. Marks after values point to notes of the source that are not given here.

What was measured:
hydroxyl radical = assay: Hydroxyl radical formation in the Fenton reagent (chemiluminescence); format: biochemical
mongrel male rats [1] = assay: Hypolipidemic activity: experimental hyperlipidemia (atherogenic load); conditions: atherogenic diet, oral last four days; for HDL-CS / LDL-CS+ VLDL-CS / Total CS / Triglycerides: blood; for Kcs: cholesterol index;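 as to all read-outs here: serum drawn 18 h after the final dose from rats deprived of food over that interval, groups of 10 animals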
Protocol: (§2) Hypolipidemic activity of the compounds of general formula (I) was studied on the model of experimental hyperlipidemia [Arichi H., Kumura H.O. Effects of stibens compounds of roots of polygonum cuspidatium on the lipid metabolism. […] Each group of animals included 10 rats. […] Blood samples were taken for analysis 18 hours after the last administration of the test substances during which period food was taken away from rats.
(§3) The following parameters were determined: total cholesterol (total CS); high density lipoprotein cholesterol (HDL-CS); low density lipoprotein cholesterol and very low density lipoprotein cholesterol (LDL-CS and VLDL-CS); triglycerides (TG). Blood serum CS level was determined according to the Ilk method [Biochemical examination in the clinic. […] HDL-CS level was measured in supernatant following heparine-manganese precipitation of LDL+VLDL [Titov V.N., Brener E.D., Khaltaiev N.G., Zadoya A.A., Tvorogova M.G. A method and diagnostic significance of cholesterol level study in α-lipoproteins. […] LDL-CS level determination was carried out by calculation according to the formula presented in the work Friedwald W.T. [Friedwald W.T., Levy K.J., Leus R. Fat transport in lipoproteins: an integrated approach to mechanism and disorders.
(§4) To assess the effect of the test compounds on the ratio of atherogenic and antiatherogenic blood serum lipoproteins, cholesterol index (Kcs) was calculated according to the formula presented in the work [Klimov A.N., Nikulcheva N.G. Lipoproteins, dylipoproteinemias and atherosclerosis.
(§5) Blood serum TG level was determined using the conventional method [Friedwald W.T., Levy R.I., Fredrickson D.S. Estimation of concentration of low-density lipoprotein cholesterol in plasma, without use of preparative ultracentrifuge.

[2] = system: hepatic P-450 cytochrome system; assay: Hexenal sleep duration in mice; format: in vivo; conditions: CBF1 mice, oral 3 days, control 25.91 ± 1.57
Protocol: Change in Hexenal sleep (HS) duration is the in vivo measurable index of hepatic P-450 cytochrome system condition.
Studies were carried out on male mice of the lines BALB/c*h75, C57B1/6, CBA, DBA/2, first generation CBF1 and BDF1 hybrides, with initial mass 18-20 g, each group including 10 mice; and on mongrel male guinea pigs with initial mass 250-300 g, each group including 24 animals. All the test compounds (from II to LII) were administered orally in drinking water and for three days at doses 50 and 500 µg/kg. Hexenal hydrochloride at a dose […] of animal mass was administered 24 hours after the last drug administration, except for line BALB/c*h75 mice, which were administered Hexenal at a dose 60 µg/kg at the same terms, and guinea pigs for which Hexenal dose was 30 µg/kg. HS duration was determined in minutes.

[3] = system: Lewis pulmonary carcinoma (LLC); assay: Lewis pulmonary carcinoma spontaneous metastasizing, oral administration; format: in vivo; conditions: BDF1 female mice with LLC, oral 24 days; for Mean number of metastases: day 25
Protocol: Each group included 15 animals. 0.3 ml of LLC tumor tissue suspension was intramuscularly injected to mice. Henks solution was used as a solvent. […] Moscow (1992) 13 pp.]. […]

[4] = system: Lewis pulmonary carcinoma (LLC); assay: Lewis pulmonary carcinoma growth; format: in vivo; conditions: mice with LLC, day 12; for Growth inhibition percent: compound in drinking water; for Tumor volume (mm^3): compound in drinking water from 24 hours after transplantation
Protocol: Experiments were carried out on male mice with initial body mass 18-20 g. Each group included 10 animals. […] Administration of compounds II, III, IX, X, XII, XIV, XV, XVI, XVII, XIX, XXII, XLVII in drinking water was commenced 24 hours following transplantation and continued till the end of experiment. Effect of the compounds on Lewis rat pulmonary carcinoma (LLC) was estimated by day 12 of experiment by change in tumor volume expressed in mm^3.

white mongrel male rats [5] = assay: Carrageenan paw edema, cutaneous gel application (series 2); format: in vivo; conditions: for Volume of paws (conditional units) Right: 0.1 ml of 1% gel on right paw, 4 hours after carrageenan; for Volume of paws (conditional units) left: 1% gel group, left paw; for Volume of paws (conditional units) left / Inflammation inhibition (%) / Volume increment: 4 hours; for Inflammation inhibition (%) / Volume increment: 1% gel
Protocol: (§1) Experiment was carried out on white mongrel male rats weighing 280-300 g. Carrageenan-induced edema was caused according to the method of Winter et al. [[inter et al. In: De Rosa M., Giroud J.P., Willoughby D.A. Studies of the mediators of the acute inflammatory reponse induced in rats in different sites by carrageenan and turpentine. […] Paw volume measurement was done using a plethysmograph (Ugo Basile) 1, 3 and 4 hours after carrageenan administration. Inhibition of inflammatory reaction expressed in percent, was calculated according to the formula: 100-[(R-L(exper.))/(L):(R-L(control))/(L)x100](%) [formula] where R - the right paw volume, L - the left paw volume.
Series 2 of experiment. 2% carrageenan solution was injected sublaterally into paws of rats. In 1 minute 0.1 ml of gel comprising the test compounds were applied on the right paw. Gel base consisted of propylene glycol dissolved in the mixture of water and ethanol. Concentration of the compounds in the gel was 1%. Volume of paws was measured 4 hours after carrageenan administration.

white mongrel male rats [6] = assay: Carrageenan paw edema, oral administration (series I); format: in vivo
Protocol: as §1
Series I of experiment. […] The reference drug Naproxene was once administered at a dose 20 µg/kg 1 hour before edema induction. Each group included 10 animals.

superoxide anion-radical = assay: Superoxide anion-radical formation in the xantine-xantine oxidase system (chemiluminescence); format: biochemical
Protocol: Effect of the compounds of general formula (I) on change in chemiluminescence (CL) determined by hydroxyl radical ( OH) and superoxide anion-radical (O2-), in the model chemical and enzymatic systems.
5 to 10 ml of the test compounds dissolved in water were at needed concentration introduced into a cuvette. A total sample volume was 0.5 ml. • B. Superoxide anion-radical in the mixture of xantine and xantine oxidase [Afanas'ev I., Suslova T., Cheremisina Z. et al. Study of antioxidant properties of metal aspartates.
Incubation medium comprised 5 mM KH2PO4; 0.2 IU/ml xantine oxidase. Xantine at concentration 1 mM was introduced into sample through a dispencer. Luceginine (0.2 mM) was used in this system as luminiscence sensitizer.
CL signal indication was performed by its integration every 10 seconds for 5 minutes. CL flash recording duration after mixing ingredients, depended on a particular process kinetics. For each system, CL light sum (mV) was determined in the control samples without preparations (I-) and in samples comprising respective concentrations of preparations (I+). To estimate CL inhibition (activation) degree, the I+/I- ratio (in relative units) was found in the studied systems.
AOF formation and effect of the test compounds on this process were recorded on the Luminometer-1251 instrument (LKB, Sweden).
Because of such "distension" of the kinetic curve, chemiluminescence light sum was recorded during the first 3-5 minutes which reflected a total amount of light quantums produced in the system till achieving the maximum CL intensity values.

[7] = system: Isolate HIV-1/IV17 of type 1 human immunodeficiency virus; assay: Viability of MT-4 cells acutely infected with HIV-1; format: cell-based; conditions: Human immunodeficiency virus 1, MT4, 168 h, day 7, series 2 (infected cells 24, non-infected 88), read-out: Viability of cells in percent
Protocol: Study was carried out on the culture of human lymphoblastoid cells MT-4. Isolate HIV-1/IV17 of type 1 human immunodeficiency virus from the collection of the D.I.Ivanovsky Institute for Virology was used in experiment. The test compounds of general formula (I): III, VI, VII were introduced into cellular culture at concentrations 1.0; 0.1 and 0.01 µg/ml. The reference drug Azidothymidine was introduced at a dose 0.05 µM/ml. The compounds were introduced into the culture of MT-4 cells at a dose 1000 TCD50 one hour prior to virus introduction. Viability of MT-4 cells was estimated by day 7 of experiment.
Viability of cells was the main efficacy parameter of the test compounds.

mongrel male rats [8] = conditions: po, 96 h
Protocol: as §2, §3, §4, §5

[9] = system: Strain Aichi of type A human influenza virus; format: in vivo; conditions: mice, influenza virus; 500 µg/kg
mongrel male mice = assay: Delayed hypersensitivity induced by picryl chloride (TCB), local ointment; format: in vivo; conditions: mice, TCB
Protocol: Effect study of the compounds on the delayed type hypersensitivity reaction induced in mice by 2.4.6-trichlorobenzol (TCB) was carried out according to the method of Tarayre et al. [Tarayre J.P., Barbara M., Aliaga M., Tisne-Versilles. Comparative actions of immunosuppressants, glucocorticoids and non-steroidal antiinflammatory drugs on various models of delayed hypersensitivity and on a non-immune inflammation in mice. Arzneim.-Forsch. Drug Res. (1990), Vol. 40, pip.1125-1131].
Studies were conducted on mongrel male mice with initial body mass 30-35 g. Each group included 10 animals. Mice were sensitized with 0.1 ml 3% TCB solution in acetone application on a shaved abdominal area. In 7 days, the anaphylaxis-provoking TCB dose (0.025 ml of 3% solution) was applied on both surfaces of the right ear. In 30 minutes 0.05 ml of the test ointment were rubbed into the same surfaces. 24 hours after edema induction, mice were sacrified, ears were cut off and weighed. Allergic reaction intensity was assessed by change in weight in grams of the right ear (the test one) in relation to the left ear (the control ear).
Allergic reaction inhibition expressed in percent was calculated according to the formula: 100-[(R-L(exper.))/(L):(R-L(control))/(L)x100](%) [formula] where R - the right ear weight, L - the left ear weight.
The test compounds were applied on the ear in the form of 1% and 5% ointment the base of which were 10% methylcellulose solution and propylene glycol at 1:1 ratio.
Groups of animals: • Group 1 - control, ointment base without active substance was applied on the ear of animals. • Group 2 - ointment base comprising 1% compound III was applied on the ear of animals. • Group 3 - ointment base comprising 1% compound XVII was applied on the ear of animals. • Group 4 - ointment base comprising 5% compound XLVIII was applied on the ear of animals.

[10] = 0.01 mM, control of the series as in the table
[11] = 0.1 mM, control of the series as in the table
[12] = 1 mM, control of the series 7839 ± 171, 1120 ± 163, 4974 ± 283 or 1332 ± 172
[13] = intragastral four times 50 µg/kg
[14] = 1 mM, control of the series 5616 ± 173, 5391 ± 195, 7290 ± 128 or 6776 ± 150

Compound	Chemiluminiscence intensity (mV) + σn-1 (hydroxyl radical; [11]) [mV]	relative effect: I+/I- (hydroxyl radical; 1 mM)	Chemiluminiscence intensity (mV) + σn-1 (hydroxyl radical; [12]) [mV]	HDL-CS (mongrel male rats [1]; 50 µg/kg)	Total CS (mongrel male rats [1]; 50 µg/kg)	Triglycerides (mongrel male rats [1]; 50 µg/kg)	HDL-CS (mongrel male rats [1]; 500 µg/kg)	Total CS (mongrel male rats [1]; 500 µg/kg)	Triglycerides (mongrel male rats [1]; 500 µg/kg)	Kcs (mongrel male rats [1]; 50 µg/kg)	Kcs (mongrel male rats [1]; 500 µg/kg)	Growth inhibition percent [4] [%]	Tumor volume (mm^3) [4]	Volume of paws (conditional units) Right (white mongrel male rats [5]) [conditional units]	Volume of paws (conditional units) left (white mongrel male rats [5]) [conditional units]	Inflammation inhibition (%) (white mongrel male rats [5])	Volume increment (white mongrel male rats [5])	also measured
COC(=O)[C@H](Cc1c[nH]cn1)NC(=O)CCCC(=O)O [IX, N-GLUTARYL-L-HISTIDINE METHYL ETHER]	664 ± 47	0.20	225 ± 9	29,7±3,6*^A	78,4±4,4*^A	24,5±20,2	20,1±1,6	72,1±3,9**^A	201.8±8,1***^A	1,64±0,16***^A	2,59±0,17***^A	10	2372 ± 323 mm^3	–	–	–	–	relative effect: I+/I- (hydroxyl radical; 0.01 mM): 0.95; Chemiluminiscence intensity (mV) + σn-1 (hydroxyl radical; [10]): 1069 ± 72 mV; relative effect: I+/I- (hydroxyl radical; 0.1 mM): 0.59; LDL-CS+ VLDL-CS (mongrel male rats [1]; 50 µg/kg): 48,7±4,4**^A; LDL-CS+ VLDL-CS (mongrel male rats [1]; 500 µg/kg): 52,0±3,4**^A; Hexenal sleep duration (minutes) ([2]; 50 µg/kg): 16.71 ± 0.94** minutes; Hexenal sleep duration ([2]; 500 µg/kg): 20.76 ± 1.32 min; Mean number of metastases ([3]; 500 µg/kg): 38.5 ± 5.7*^3; Metastasizing inhibition percent ([3]; 500 µg/kg): 24.0%
O=C(O)Cc1ccccc1Nc1c(Cl)cccc1Cl [Voltaren, reference compound]	–	–	–	–	–	–	–	–	–	–	–	–	–	1.99 ± 0.24	1.63 ± 0.26	48	0.40 ± 0.03	–
O=C(O)CCC(=O)NCCc1c[nH]cn1 [compound II, N-SUCCINYLHISTAMINE]	693 ± 42	0.16	175 ± 21	–	–	–	–	–	–	–	–	61	1025 ± 150** mm^3	–	–	–	–	Inflammation inhibition (%) (white mongrel male rats [6]; [13]): 12%; Volume increment (white mongrel male rats [6]; [13]): 0.64 ±0.05*^!; Volume of paws (conditional units) left (white mongrel male rats [6]; [13]): 1.28 ± 0.28 conditional units; Volume of paws (conditional units) Right (white mongrel male rats [6]; intragastral four times 50 µg/kg 72, 48, 24 and 1 hour before): 1.92 ± 0.65 conditional units; relative effect: I+/I- (hydroxyl radical; 1 µM): 0.86; Chemiluminiscence intensity (mV) + σn-1 (hydroxyl radical; 1 µM, control of the series as in the table): 961 ± 42 mV; relative effect: I+/I- (hydroxyl radical; 0.01 mM): 0.69; Chemiluminiscence intensity (mV) + σn-1 (hydroxyl radical; [10]): 772 ± 44 mV; relative effect: I+/I- (hydroxyl radical; 0.1 mM): 0.62; relative effect: 1+/I- (superoxide anion-radical; 0.01 mM): 0.97; Chemiluminiscence intensity (mV) + σn-1 (superoxide anion-radical; [10]): 5229 ± 140 mV; relative effect: 1+/I- (superoxide anion-radical; 0.1 mM): 0.88; Chemiluminiscence intensity (mV) + σn-1 (superoxide anion-radical; [11]): 4753 ± 89 mV; relative effect: 1+/I- (superoxide anion-radical; 1 mM): 0.58; Chemiluminiscence intensity (mV) + σn-1 (superoxide anion-radical; [14]): 3143 ± 156 mV; Hexenal sleep duration (minutes) ([2]; 500 µg/kg): 21.72 ± 1.24* minutes; Mean number of metastases ([3]; 50 µg/kg): 44.3 ± 8.0; Mean number of metastases ([3]; 500 µg/kg): 32.9 ± 4.8*^2; Metastasizing inhibition percent ([3]; 50 µg/kg): 5.5%; Metastasizing inhibition percent ([3]; 500 µg/kg): 30.0%
COC(=O)[C@H](Cc1c[nH]cn1)NC(=O)CC[C@H](N)C(=O)O [compound VII, γ -L-GLUTAMYL-HISTIDINE METHYL ETHER DIHYDROCHLORIDE]	1158 ± 102	0.15	165 ± 7	26,0±1,9	72,3±4,9**^A	250,6±12,0	22,3±2,2	78,1±3,3	251,4±12,71	1,78±0,12***^A	2,5±0,17**^A	–	–	–	–	–	–	viability at 0.01 µg/mL ([7]; 0.01 µg/ml): 34%; viability at 0.1 µg/mL ([7]; 0.1 µg/ml): 49%; viability at 1 µg/mL ([7]; 1.0 µg/ml): 51%; relative effect: 1+/I- (superoxide anion-radical; 0.01 mM): 0.91; Chemiluminiscence intensity (mV) + σn-1 (superoxide anion-radical; [10]): 5082 ± 278 mV; relative effect: 1+/I- (superoxide anion-radical; 0.1 mM): 0.72; Chemiluminiscence intensity (mV) + σn-1 (superoxide anion-radical; [11]): 4050 ± 291 mV; relative effect: 1+/I- (superoxide anion-radical; 1 mM): 0.20; Chemiluminiscence intensity (mV) + σn-1 (superoxide anion-radical; [14]): 1114 ± 51 mV; LDL-CS+ VLDL-CS (mongrel male rats [8]; 0.05 mg/kg): 46,3±3,2**^A; LDL-CS+ VLDL-CS (mongrel male rats [8]; 0.5 mg/kg): 55,8±3,9**^A; Hexenal sleep duration (minutes) ([2]; 50 µg/kg): 17.62 ± 0.96* minutes; Hexenal sleep duration (minutes) ([2]; 500 µg/kg): 16.99 ± 1.33* minutes; increase in MLT, survival rate and protection degree [9]: most manifested
NCCC(=O)NCCc1c[nH]c2ccccc12 [compound XIII]	–	–	–	23,9±1,9	76,3±5,5*^A	201,2±8,7***^A	27,8±2,3*^A	69,3±3,7***^A	190,0±11,7***^A	2,19±0,16***^A	1,49±0,1***^A	–	–	2.29 ± 0.18	1.82 ± 0.34	35	0.47 ± 0.08	LDL-CS+ VLDL-CS (mongrel male rats [1]; 50 µg/kg): 52,4±3,9**^A; LDL-CS+ VLDL-CS (mongrel male rats [1]; 500 µg/kg): 41,5±2,9***^A
O=C(O)CCCC(=O)NCCc1c[nH]c2ccccc12 [compound XVII, N-GLUTARYLTRYPTAMINE]	–	–	–	–	–	–	–	–	–	–	–	48	1367 ± 233** mm^3	–	–	–	–	Reaction inhibition (%) (mongrel male mice; 1% ointment): 24%; weight increment (mongrel male mice; 1% ointment): 6.1 ± 0.59 g; Weight of years (g) Right (mongrel male mice; 1% ointment on right ear 30 minutes after challenge, 24 hours): 21.6 ± 1.02 g; Weight of years (g) left (mongrel male mice; left (control) ear of animals given 1% ointment): 15.5 ± 1.02 g
N[C@@H](Cc1c[nH]cn1)C(=O)NCCC(=O)O [compound XXXVI, N-L-HISTIDYL-β-ALANINE]	–	–	–	–	–	–	–	–	–	–	–	–	–	2.23 ± 0.42	1.86 ± 0.16	50	0.37 ± 0.07	–
